# In patent US6632817B2, “Fluoromethoximino compounds” (priority 1997, dated 2003):
# Test system: Venturia inaequalis
# Assay: Venturia test (apple)/protective
# Format: in vivo
# Details: Venturia inaequalis, 288 h, protective, application rate 10 g/ha, evaluation 12 days after inoculation, read-out: Efficacy in %
# Description: Venturia Test (Apple)/Protective
# (§1) Solvent: 47 parts by weight of acetone
# (§2) Emulsifier: 3 parts by weight of alkylaryl polyglycol ether
# (§3) To produce a suitable preparation of active compound, 1 part by weight of active compound is mixed with the stated amounts of solvent and emulsifier, and the concentrate is diluted with water to the desired concentration.
# To test for protective activity, young plants are sprayed with the preparation of active compound at the stated application rate. After the spray coating has dried on, the plants are inoculated with an aqueous conidia suspension of the causative organism of apple scab Venturia inaequalis and then remain in an incubation cabin at approximately 20° C. and 100% relative atmospheric humidity for 1 day.
# The plants are then placed in a greenhouse at approximately 21° C. and a relative atmospheric humidity of approximately 90%.
# Evaluation is carried out 12 days after the inoculation. 0% means an efficacy which corresponds to that of the control, whereas an efficacy of 100% means that no infection is observed.
row,SMILES,pest or weed control at 10 g/ha [%]
1,"CNC(=O)C(=NOCF)c1ccccc1Oc1nc(-c2ccccc2)ns1 [Example 3, 2-fluoromethoxyimino-N-methyl-2-[2-(3-phenyl-[1,2,4]thiadiazol-5-yloxy)-phenyl]-acetamide]",≥ 99
2,CNC(=O)/C(=N\OCF)c1ccccc1Oc1ncnc(Oc2cccc(C)c2C)c1F [Example 9],≥ 99
3,CNC(=O)/C(=N\OCF)c1ccccc1Oc1ncnc(Oc2ccccc2C)c1F [Example 11],≥ 99
4,CNC(=O)/C(=N\OCF)c1ccccc1Oc1nc(-c2cccc(OC(F)(F)F)c2)ns1 [Example 23],≥ 99
5,CNC(=O)C(NOCF)c1ccccc1Oc1ncnc(Oc2cccc(Cl)c2Cl)c1F (stereo not shown) [drawing 71],96
6,CNC(=O)C(NOCF)c1ccccc1Oc1ncnc(Oc2ccccc2)c1F (stereo not shown) [drawing 73],96
7,CNC(=O)/C(=N\OCF)c1ccccc1Oc1ncnc(Oc2ccccc2Cl)c1F [drawing 81],100
8,CNC(=O)/C(=N\OCF)c1ccccc1Oc1nc(-c2cccc(OC(F)F)c2)ns1 [drawing 82],100

# Same assay, conditions: Venturia inaequalis, 288 h, protective, application rate 19 g/ha, evaluation 12 days after inoculation, read-out: Efficacy in %
row,SMILES,pest or weed control at 19 g/ha [%]
1,CNC(=O)/C(=N\OCF)c1ccccc1Oc1nc(-c2ccc(C(F)(F)F)cc2)ns1 [drawing 78],100

# Same assay, conditions: protective, application rate 10 g/ha, evaluation 12 days after inoculation
row,SMILES,Efficacy in % [%]
1,COC(=O)C(=NOCF)c1ccccc1Oc1ncnc(Oc2ccccc2Cl)c1F [drawing 68],100
2,CNC(=O)C(=NOCF)c1ccccc1Oc1ncnc(Oc2ccccc2Cl)c1F [drawing 69],99
3,CNC(=O)C(=NOCF)c1ccccc1Oc1nc(-c2ccccc2)ns1 [drawing 70],100
4,CNC(=O)/C(=N\OCF)c1ccccc1Oc1ncnc(Oc2ccccc2OC(F)F)c1F [drawing 72],95
5,CNC(=O)/C(=N\OCF)c1ccccc1Oc1ncnc(Oc2cccc(C)c2C)c1F [drawing 74],100
6,CNC(=O)/C(=N\OCF)c1ccccc1Oc1ncnc(Oc2ccccc2C)c1F [drawing 75],100
7,CNC(=O)/C(=N\OCF)c1ccccc1Oc1ncnc(Oc2cccc(Cl)c2C)c1F [drawing 76],98
8,CNC(=O)/C(=N\OCF)c1ccccc1Oc1nc(-c2cccc(OC(F)(F)F)c2)ns1 [drawing 77],100
9,CNC(=O)/C(=N\OCF)c1ccccc1Oc1nc(-c2cccc(C(F)(F)F)c2)ns1 [drawing 79],100
10,CNC(=O)/C(=N\OCF)c1ccccc1Oc1nc(-c2ccc(OC(F)(F)F)cc2)ns1 [drawing 80],100
11,CNC(=O)/C(=N\OCF)c1ccccc1Oc1nc(-c2ccc(OC(F)F)cc2)ns1 [drawing 83],99

# Test system: Puccinia recondita
# Assay: Puccinia test (wheat)/protective
# Format: in vivo
# Details: Puccinia recondita, 240 h, protective, application rate 250 g/ha, evaluation 10 days after inoculation, read-out: Efficacy in %
# Description: Puccinia Test (Wheat)/Protective
# Solvent: 25 parts by weight of N,N-dimethylacetamide
# Emulsifier: 0.6 part by weight of alkylaryl polyglycol ether
# as §3
# To test for protective activity, young plants are sprayed with the preparation of active compound at the stated application rate. After the spray coating has dried on, the plants are sprayed with a conidia suspension of Puccinia recondita. The plants remain in an incubation cabin at 20° C. and 100% relative atmospheric humidity for 48 hours.
# The plants are then placed in a greenhouse at a temperature of approximately 20° C. and a relative atmospheric humidity of 80% to promote the development of rust pustules.
# Evaluation is carried out 10 days after the inoculation. 0% means an efficacy which corresponds to that of the control, whereas an efficacy of 100% means that no infection is observed.
row,SMILES,pest or weed control at 250 g/ha [%]
1,CNC(=O)/C(=N\OCF)c1ccccc1Oc1ncnc(Oc2cccc(C)c2C)c1F [Example 9],≥ 80
2,CNC(=O)/C(=N\OCF)c1ccccc1Oc1ncnc(Oc2ccccc2C)c1F [Example 11],≥ 80
3,CNC(=O)C(NOCF)c1ccccc1Oc1ncnc(Oc2cccc(Cl)c2Cl)c1F (stereo not shown) [drawing 86],100
4,CNC(=O)C(NOCF)c1ccccc1Oc1ncnc(Oc2ccccc2)c1F (stereo not shown) [drawing 88],100
5,CNC(=O)C(NOCF)c1ccccc1Oc1ncnc(Oc2ccccc2[N+](=O)[O-])c1F (stereo not shown) [drawing 89],100
6,CNC(=O)/C(=N\OCF)c1ccccc1Oc1ncnc(Oc2ccccc2Cl)c1F [drawing 96],100

# Same assay, conditions: protective, application rate 250 g/ha, evaluation 10 days after inoculation
row,SMILES,Efficacy in % [%]
1,COC(=O)C(=NOCF)c1ccccc1Oc1ncnc(Oc2ccccc2Cl)c1F [drawing 84],80
2,CNC(=O)C(=NOCF)c1ccccc1Oc1ncnc(Oc2ccccc2Cl)c1F [drawing 85],100
3,CNC(=O)/C(=N\OCF)c1ccccc1Oc1ncnc(Oc2ccccc2OC(F)F)c1F [drawing 87],100
4,CNC(=O)/C(=N\OCF)c1ccccc1Oc1ncnc(Oc2cccc(C)c2C)c1F [drawing 90],100
5,CNC(=O)/C(=N\OCF)c1ccccc1Oc1ncnc(Oc2ccccc2C#N)c1F [drawing 91],100
6,CNC(=O)/C(=N\OCF)c1ccccc1Oc1ncnc(Oc2ccccc2C)c1F [drawing 92],100
7,CNC(=O)/C(=N\OCF)c1ccccc1Oc1nc(-c2ccc(C(F)(F)F)cc2)ns1 [drawing 93],100
8,CNC(=O)/C(=N\OCF)c1ccccc1Oc1nc(-c2cccc(C(F)(F)F)c2)ns1 [drawing 94],100
9,CNC(=O)/C(=N\OCF)c1ccccc1Oc1nc(-c2ccc(OC(F)(F)F)cc2)ns1 [drawing 95],100
10,CNC(=O)/C(=N\OCF)c1ccccc1Oc1nc(-c2ccc(OC(F)F)cc2)ns1 [drawing 97],100

# Test system: not listed separately
# Assay: logP determination by HPLC (EEC Directive 79/831 Annex V. A8)
# Format: physicochemical
# Details: HPLC gradient method, acetonitrile/0.1% aqueous phosphoric acid
# Description: The logP values are determined in accordance with EEC Directive 79/831 Annex V. A8 by HPLC (gradient method, acetonitrile/0.1% aqueous phosphoric acid).
row,SMILES,chromatographic logP
1,"CNC(=O)C(=NOCF)c1ccccc1Oc1nc(-c2ccccc2)ns1 [Example 3, 2-fluoromethoxyimino-N-methyl-2-[2-(3-phenyl-[1,2,4]thiadiazol-5-yloxy)-phenyl]-acetamide]",2.9
2,CNC(=O)/C(=N\OCF)c1ccccc1Oc1ncnc(Oc2cccc(C)c2C)c1F [Example 9],3.3
3,CNC(=O)/C(=N\OCF)c1ccccc1Oc1ncnc(Oc2ccccc2C)c1F [Example 11],3
4,CNC(=O)/C(=N\OCF)c1ccccc1Oc1nc(-c2cccc(OC(F)(F)F)c2)ns1 [Example 23],3.8
5,CNC(=O)/C(=N\OCF)c1ccccc1Oc1ncnc(Oc2cccc(C)c2Cl)c1F [Example 27],3.32
6,"COC(=O)C(=NOCF)c1ccccc1O [Example (II-1), methyl 2-fluoromethoxyimino-2-(2-hydroxyphenyl)-acetate]",1.6
7,"CNC(=O)C(=NOCF)c1ccccc1O [Example (II-2), 2-fluoromethoxyimino-2-(2-hydroxyphenyl)-N-methylacetamide]",1.1
8,"COC(=O)C(=NOCF)c1ccccc1OC1CCCCO1 (stereo not shown) [Example (VI-1), methyl 2-fluoromethoxyimino-2-[2-(tetrahydropyran-2-yloxy)-phenyl]-acetate]",2.8

# Test system: Plasmopara viticola
# Assay: Plasmopara test (grapevine)/protective
# Format: in vivo
# Details: Plasmopara viticola, 144 h, protective, application rate 100 g/ha, evaluation 6 days after inoculation, read-out: Efficacy in %
# Description: Plasmopara Test (Grapevine)/Protective
# as §1, §2, §3
# To test for protective activity, young plants are sprayed with the preparation of active compound at the stated application rate. After the spray coating has dried on, the plants are inoculated with an aqueous spore suspension of Plasmopara viticola and then remain in an incubation cabin at approximately 20° C. and 100% relative atmospheric humidity for 1 day. The plants are subsequently placed in a greenhouse at approximately 21° C. and approximately 90% relative atmospheric humidity for 5 days. The plants are then moistened and placed in an incubation cabin for 1 day.
# Evaluation is carried out 6 days after the inoculation. 0% means an efficacy which corresponds to that of the control, whereas an efficacy of 100% means that no infection is observed.
row,SMILES,pest or weed control at 100 g/ha [%]
1,"CNC(=O)C(=NOCF)c1ccccc1Oc1nc(-c2ccccc2)ns1 [Example 3, 2-fluoromethoxyimino-N-methyl-2-[2-(3-phenyl-[1,2,4]thiadiazol-5-yloxy)-phenyl]-acetamide]",≥ 98
2,CNC(=O)/C(=N\OCF)c1ccccc1Oc1ncnc(Oc2cccc(C)c2C)c1F [Example 9],≥ 98
3,CNC(=O)/C(=N\OCF)c1ccccc1Oc1ncnc(Oc2ccccc2C)c1F [Example 11],≥ 98
4,CNC(=O)/C(=N\OCF)c1ccccc1Oc1nc(-c2cccc(OC(F)(F)F)c2)ns1 [Example 23],≥ 98
5,CNC(=O)/C(=N\OCF)c1ccccc1Oc1ncnc(Oc2cccc(C)c2Cl)c1F [Example 27],≥ 98
6,CNC(=O)C(NOCF)c1ccccc1Oc1ncnc(Oc2ccccc2)c1F (stereo not shown) [drawing 57],100
7,CNC(=O)C(NOCF)c1ccccc1Oc1ncnc(Oc2ccccc2[N+](=O)[O-])c1F (stereo not shown) [drawing 58],96
8,CNC(=O)/C(=N\OCF)c1ccccc1Oc1ncnc(Oc2ccccc2Cl)c1F [drawing 64],100
9,CNC(=O)/C(=N\OCF)c1ccccc1Oc1nc(-c2cccc(OC(F)F)c2)ns1 [drawing 65],99

# Same assay, conditions: protective, application rate 100 g/ha, evaluation 6 days after inoculation
row,SMILES,Efficacy in % [%]
1,COC(=O)C(=NOCF)c1ccccc1Oc1ncnc(Oc2ccccc2Cl)c1F [drawing 50],98
2,CNC(=O)C(=NOCF)c1ccccc1Oc1ncnc(Oc2ccccc2Cl)c1F [drawing 51],100
3,CNC(=O)/C(=N\OCF)c1ccccc1Oc1ncnc(Oc2ccccc2C)c1F [drawing 52],100
4,CNC(=O)/C(=N\OCF)c1ccccc1Oc1ncnc(Oc2cccc(Cl)c2C)c1F [drawing 53],100
5,CNC(=O)/C(=N\OCF)c1ccccc1Oc1nc(-c2cccc(OC(F)(F)F)c2)ns1 [drawing 54],100
6,CNC(=O)C(=NOCF)c1ccccc1Oc1nc(-c2ccccc2)ns1 [drawing 55],100
7,CNC(=O)/C(=N\OCF)c1ccccc1Oc1ncnc(Oc2ccccc2OC(F)F)c1F [drawing 56],96
8,CNC(=O)/C(=N\OCF)c1ccccc1Oc1ncnc(Oc2cccc(C)c2C)c1F [drawing 59],100
9,CNC(=O)/C(=N\OCF)c1ccccc1Oc1ncnc(Oc2ccccc2C#N)c1F [drawing 60],96
10,CNC(=O)/C(=N\OCF)c1ccccc1Oc1nc(-c2ccc(C(F)(F)F)cc2)ns1 [drawing 61],100
11,CNC(=O)/C(=N\OCF)c1ccccc1Oc1nc(-c2cccc(C(F)(F)F)c2)ns1 [drawing 62],100
12,CNC(=O)/C(=N\OCF)c1ccccc1Oc1nc(-c2ccc(OC(F)(F)F)cc2)ns1 [drawing 63],100
13,CNC(=O)/C(=N\OCF)c1ccccc1Oc1nc(-c2ccc(OC(F)F)cc2)ns1 [drawing 66],100
14,CNC(=O)/C(=N\OCF)c1ccccc1Oc1ncnc(Oc2cccc(C)c2Cl)c1F [drawing 67],100
